Measured values taken from publication PMC3740138, “Bile acids induce apoptosis selectively in androgen-dependent and -independent prostate cancer cells” (PeerJ, 2013).

Columns and labels:
PC-3 cells [1] = assay: Percentage of intact cells (Hoechst 33342 / propidium iodide counting), PC-3; type: cell-based, human; conditions: for Concentrations decreasing cell viability / number of intact cells: PC-3, 48 h, tested 10–500 µM; for Effect of caspase inhibitor on LCA-induced cell death: PC-3, 24 h co-exposure, 50 µM LCA + 10 µM inhibitor
Experimental: (§1) For apoptotic and necrotic cell death measurements, LNCaP and PC-3 cells were seeded at densities of 1 × 10^5 and 0.5 × 10^5 cells/ml, respectively, in 24-well plates in 2% stripped-FBS. Cells were then treated with several concentrations of bile acids in the presence (LNCaP) or absence (PC-3) of 0.1 nM DHT. […] After a 15 min incubation at 37°C, cells were observed and counted under a Nikon Eclipse (TE-2000U) inverted fluorescent microscope at 20× magnification. […] To measure mitochondrial membrane potential (MMP), cells were treated with LCA for 1, 4 or 8 h, and tetramethylrhodamine ethyl ester (TMRE) was added to each well at a final concentration of 50 nM. TMRE is a cell permeable, positively charged dye that accumulates in active negatively charged mitochondria.
(§2) All experiments were performed in at least triplicate using cells after various passages and the data are presented as mean ± SEM. Statistically significant differences (p < 0.05) between various treatments and untreated cells were determined using a two-tailed Student t-test with Bonferroni correction for multiple comparisons. IC50 values for inhibition of cell viability were calculated using a sigmoidal curve-fitting model of log-inhibitor concentration versus normalized inhibition response, with variable slope (GraphPad Prism v5.03, GraphPad Software, San Diego, CA).

LNCaP cells [2] = assay: Percentage of intact cells (Hoechst 33342 / propidium iodide counting), LNCaP; type: cell-based, human; conditions: for Concentrations decreasing cell viability / number of intact cells: 48 h, tested 10–500 µM; for Effect of caspase inhibitor on LCA-induced cell death: 24 h co-exposure, 40 µM LCA + 10 µM inhibitor
Experimental: as §1, §2

PC-3 cells [3] = test system: PC-3 cells; parameters: method as in Choi et al., 2003; conditions: ref Choi et al., 2003; cited from earlier work
[4] = test system: PC-3 human prostate cancer cells; assay: Extra/intracellular distribution by mass spectrometry, PC-3; type: in vitro ADME; conditions: for % of compound recovered, Cells / % of compound recovered, Medium: 24 h, mean ± SD
Experimental: (§3) Mass spectrometry-based analysis of LCA and UDCA was performed as previously reported ([Bourque & Titorenko, 2009]). […] The extracted lipids were dried under nitrogen and resuspended in chloroform. Immediately prior to injection the extracted lipids were combined with a 2:1 methanol:chloroform mixture supplemented with 0.1% (v/v) ammonium hydroxide. The sample was injected directly into a Thermo Orbitrap Velos equipped with a HESI-II ion source (Thermo Scientific, Waltham, MA, USA) at a flow rate of 5 µl/min. Spectra were obtained in negative-ion mode. The source voltage was set to 4.0 kV, a capillary temperature of 275°C, a sheath gas flow of 5 (arbitrary units) and an auxiliary gas flow of 1 (arbitrary units). Acquired spectra were exported from Xcalibur software (Thermo Scientific) and then deconvoluted and deisotoped using Excel macros.

[5] = test system: LNCaP human prostate cancer cells; assay: Extra/intracellular distribution by mass spectrometry, LNCaP; type: in vitro ADME; conditions: for % of compound recovered, Cells / % of compound recovered, Medium: LNCaP, 24 h, mean ± SD
Experimental: as §3

caspase-3 [6] = assay: Caspase-3 activity (Ac-DEVD-AFC cleavage) in LNCaP cell extracts; type: cell-based, human; conditions: 24 h, 25–75 µM
Experimental: (§4) PC-3 and LNCaP cells were seeded in 6-well plates at densities of 400000 or 750000 cells per well, respectively, in 0.5 ml culture medium containing 2% stripped FBS and 24 h later they were exposed to various concentrations of LCA in fresh medium for another 24 h. Proteins were then extracted from harvested cells using 1× RIPA buffer (Millipore, Billerica, MA) containing 1× protease inhibitor cocktail, centrifuged at 13,000 g for 5 min at 4°C to remove cell debris, and frozen at −80°C overnight. Protein concentrations were then quantified using a BCA protein detection kit (Thermo Scientific, Waltham, MA). Caspase activities were determined using fluorogenic caspase substrates selective for either caspase-3 (5 µM Ac-DEVD-AFC), caspase-9 (10 µM Ac-LEHD-AFC) or caspase-8 (10 µM Ac-IETD-AFC) in 10 µg of extracted protein suspended in caspase reaction buffer (20 mM PIPES at pH 7.2, 30 mM NaCl, 10 mM DTT, 1 mM EDTA, 0.1% CHAPS, 10% sucrose). The time-dependent release of 7-amino-4-trifluoromethyl coumarin (AFC) was measured using a SpectroMax M5 microplate reader (Molecular Devices, Sunnydale, CA) at an excitation wavelength of 400 nm and an emission wavelength of 505 nm. Measurements were recorded at 2 min intervals for 90 min. A standard curve of AFC fluorescence was used to calculate the amount of AFC released (in picomoles) during each reaction.

PC-3 cells [7] = assay: Mitochondrial membrane potential (TMRE), PC-3; type: cell-based, human; conditions: PC-3, 75 µM, as early as after 1 h
LNCaP cells [8] = assay: DHT-stimulated LNCaP cell proliferation (real-time impedance, E-plates); type: cell-based, human
caspase-9 [9] = assay: Caspase-9 activity (Ac-LEHD-AFC cleavage) in PC-3 cell extracts; type: cell-based, human; conditions: PC-3, 24 h, 25–75 µM
Experimental: as §4

caspase-9 [10] = assay: Caspase-9 activity (Ac-LEHD-AFC cleavage) in LNCaP cell extracts; type: cell-based, human; conditions: 24 h, 25–75 µM
Experimental: as §4

caspase-8 [11] = assay: Caspase-8 activity (Ac-IETD-AFC cleavage) in LNCaP cell extracts; type: cell-based, human; conditions: 24 h, 25–75 µM
Experimental: as §4

caspase-3 [12] = assay: Caspase-3 activity (Ac-DEVD-AFC cleavage) in PC-3 cell extracts; type: cell-based, human; conditions: PC-3, 24 h, 25–75 µM
Experimental: as §4

RWPE-1 cells = assay: Percentage of intact cells (Hoechst 33342 / propidium iodide counting), RWPE-1; type: cell-based, human; conditions: RWPE-1, 48 h, 50 or 75 µM
caspase-8 [13] = assay: Caspase-8 activity (Ac-IETD-AFC cleavage) in PC-3 cell extracts; type: cell-based, human; conditions: PC-3, 24 h, 25–75 µM
Experimental: as §4

LNCaP cells [14] = assay: Western blot of apoptosis proteins, LNCaP; type: cell-based, human; conditions: 24 h, 25–75 µM
Experimental: (§5) Crude protein extracts (50 µg) were resolved by electrophoresis using 10% sodium dodecyl sulfate-polyacrylamide gels and then transferred to a PVDF Immobilon-P membrane (Bio-Rad, Mississauga, ON). Blots were blocked using 5% milk powder (Selection brand, Marché Jean-Talon, Montréal, QC) and incubated with antibodies as follows: 1:250 dilution for anti-caspase-3, 1:1000 for anti-cleaved PARP, 1:1000 for anti-Bcl-2, 1:1000 for anti-Bax, and 1:1000 for anti-Bid. Immunoreactive proteins were exposed to anti-rabbit horseradish peroxidise-conjugated secondary antibodies (Millipore) that were diluted 1:5000. Antigen-antibody complexes were detected using Immobilon ECL Western Chemiluminescent HRP Substrate (Millipore) and recorded with a Versadoc imaging system (Bio-Rad). Total protein content per well was determined using 1 × Amido Black staining solution (Sigma-Aldrich).

PC-3 cells [15] = assay: Western blot of apoptosis proteins, PC-3; type: cell-based, human; conditions: PC-3, 24 h
Experimental: as §5

Compound: C[C@H](CCC(=O)O)[C@H]1CC[C@H]2[C@@H]3CC[C@@H]4C[C@H](O)CC[C@]4(C)[C@H]3C[C@H](O)[C@]12C [DCA, deoxycholic acid]
- Concentrations decreasing cell viability / number of intact cells (PC-3 cells [1]): above 100 µM
- Concentrations decreasing cell viability / number of intact cells (LNCaP cells [2]): above 100 µM

Compound: C[C@H](CCC(=O)O)[C@H]1CC[C@H]2[C@@H]3[C@H](O)C[C@@H]4C[C@H](O)CC[C@]4(C)[C@H]3C[C@H](O)[C@]12C [CA, cholic acid]
- Concentrations decreasing cell viability / number of intact cells (PC-3 cells [1]): > 500 µM
- Concentrations decreasing cell viability / number of intact cells (LNCaP cells [2]): > 500 µM

Compound: C[C@H](CCC(=O)O)[C@H]1CC[C@H]2[C@@H]3[C@H](O)C[C@@H]4C[C@H](O)CC[C@]4(C)[C@H]3CC[C@]12C [CDCA, chenodeoxycholic acid]
- Concentrations decreasing cell viability / number of intact cells (PC-3 cells [1]): above 100 µM
- Concentrations decreasing cell viability / number of intact cells (LNCaP cells [2]): above 100 µM
- Concentrations that did not result in significant cell death (PC-3 cells [3]): > 100 µM

Compound: z-IETD-fmk
- Effect of caspase inhibitor on LCA-induced cell death (PC-3 cells [1]): alleviated
- Effect of caspase inhibitor on LCA-induced cell death (LNCaP cells [2]): alleviated

Compound: C[C@H](CCC(=O)O)[C@H]1CC[C@H]2[C@@H]3[C@@H](O)C[C@@H]4C[C@H](O)CC[C@]4(C)[C@H]3CC[C@]12C [UDCA, ursodeoxycholic acid, reference compound]
- % of compound recovered, Cells ([4]; PC-3, 50 µM): 2.44 ± 0.17%
- % of compound recovered, Medium ([4]; PC-3, 50 µM): 97.56 ± 0.17%
- % of compound recovered, Cells ([4]; PC-3, 75 µM): 2.43 ± 0.67%
- % of compound recovered, Medium ([4]; PC-3, 75 µM): 97.57 ± 0.67%
- % of compound recovered, Cells ([5]; 25 µM): 9.60 ± 3.86%
- % of compound recovered, Medium ([5]; 25 µM): 90.40 ± 3.86%
- % of compound recovered, Cells ([5]; 50 µM): 4.23 ± 0.10%
- % of compound recovered, Medium ([5]; 50 µM): 95.77 ± 0.10%
- Concentrations decreasing cell viability / number of intact cells (PC-3 cells [1]): above 300 µM
- Concentrations decreasing cell viability / number of intact cells (LNCaP cells [2]): above 300 µM
- Concentrations that did not result in significant cell death (PC-3 cells [3]): > 100 µM

Compound: C[C@H](CCC(=O)O)[C@H]1CC[C@H]2[C@@H]3C[C@H](O)[C@@H]4C[C@H](O)CC[C@]4(C)[C@H]3CC[C@]12C [HDCA, hyodeoxycholic acid]
- Concentrations decreasing cell viability / number of intact cells (PC-3 cells [1]): above 300 µM
- Concentrations decreasing cell viability / number of intact cells (LNCaP cells [2]): above 300 µM

Compound: z-DEVD-fmk
- Effect of caspase inhibitor on LCA-induced cell death (PC-3 cells [1]): partially inhibited
- Effect of caspase inhibitor on LCA-induced cell death (LNCaP cells [2]): partially inhibited

Compound: C[C@H](CCC(=O)O)[C@H]1CC[C@H]2[C@@H]3CC[C@@H]4C[C@H](O)CC[C@]4(C)[C@H]3CC[C@]12C [LCA, Lithocholic acid]
- % of compound recovered, Cells ([4]; PC-3, 50 µM): 2.09 ± 0.05%
- % of compound recovered, Medium ([4]; PC-3, 50 µM): 97.91 ± 0.05%
- % of compound recovered, Cells ([4]; PC-3, 75 µM): 2.39 ± 1.93%
- % of compound recovered, Medium ([4]; PC-3, 75 µM): 97.61 ± 1.93%
- % of nominal concentration present in extracellular medium ([4]; PC-3 cultures after 24 h): ≤ 98%
- Catalytic activity of caspase-3 (caspase-3 [6]): increased
- Change in mitochondrial membrane potential (MMP) (PC-3 cells [7]): marked decrease
- % of nominal concentration present in extracellular medium ([5]; LNCaP cultures after 24 h): ≤ 98%
- % of compound recovered, Cells ([5]; 25 µM): 2.72 ± 1.10%
- % of compound recovered, Medium ([5]; 25 µM): 97.28 ± 1.10%
- % of compound recovered, Cells ([5]; 50 µM): 5.85 ± 2.45%
- % of compound recovered, Medium ([5]; 50 µM): 94.15 ± 2.45%
- IC50 (LNCaP cells [8]; Homo sapiens, LNCaP, co-treated with 0.1 nM DHT, 72 h, read-out: IC50 for inhibition of proliferation of androgen-stimulated cells): 8.5 µM
- Concentrations that inhibit proliferation of AD prostate cancer cells (LNCaP cells [8]; well below those needed to induce apoptosis): 2.5 to 10 µM
- IC50 (PC-3 cells [1]; Homo sapiens, PC-3, 48 h treatment, read-out: IC50 for decrease in number of intact cells): 74.9 ± 0.25 µM
- Caspase-9 activity (caspase-9 [9]): statistically significant increases
- Caspase-9 activity (caspase-9 [10]): statistically significant increases
- IC50 (LNCaP cells [2]; Homo sapiens, 48 h treatment, with 0.1 nM DHT, read-out: IC50 for decrease in number of intact cells): 40.5 ± 0.07 µM
- Levels of active caspase-8 (caspase-8 [11]): increased levels
- Catalytic activity of caspase-3 (caspase-3 [12]): increased
- Effect on viability of non-tumorigenic cells (RWPE-1 cells): without decreasing the viability
- Levels of active caspase-8 (caspase-8 [13]): increased levels
- Effect on pro-apoptotic proteins Bax and Bid (LNCaP cells [14]): cleavage
- Levels of 89 kDa PARP fragment (LNCaP cells [14]): significantly elevated
- Levels of cleaved, active 17 and 20 kDa caspase-3 subunits (LNCaP cells [14]): increased levels
- Levels of 89 kDa PARP fragment elevated (PC-3 cells [15]): not in PC-3 cells
- Bcl-2 levels (PC-3 cells [15]; 25–75 µM): decreased levels
- Effect on pro-apoptotic proteins Bax and Bid (PC-3 cells [15]; 25–75 µM): cleavage
- Levels of cleaved, active 17 and 20 kDa caspase-3 subunits (PC-3 cells [15]; 25–75 µM): increased levels
